Our source for the IC50 values is ChEMBL document CHEMBL3414535, “Identification and optimization of Escherichia coli GlmU inhibitors: an in silico approach with validation thereof” (Eur J Med Chem, 2015).

For this experiment, the target named is Bifunctional protein GlmU (Escherichia coli (strain K12), UniProt P0ACC7). As to the kind of experiment: Inhibition of Escherichia coli GlmU acetyltransferase activity assessed as coenzyme A production using acetyl CoA substrate.
Sequence of Bifunctional protein GlmU (P0ACC7 whole entry): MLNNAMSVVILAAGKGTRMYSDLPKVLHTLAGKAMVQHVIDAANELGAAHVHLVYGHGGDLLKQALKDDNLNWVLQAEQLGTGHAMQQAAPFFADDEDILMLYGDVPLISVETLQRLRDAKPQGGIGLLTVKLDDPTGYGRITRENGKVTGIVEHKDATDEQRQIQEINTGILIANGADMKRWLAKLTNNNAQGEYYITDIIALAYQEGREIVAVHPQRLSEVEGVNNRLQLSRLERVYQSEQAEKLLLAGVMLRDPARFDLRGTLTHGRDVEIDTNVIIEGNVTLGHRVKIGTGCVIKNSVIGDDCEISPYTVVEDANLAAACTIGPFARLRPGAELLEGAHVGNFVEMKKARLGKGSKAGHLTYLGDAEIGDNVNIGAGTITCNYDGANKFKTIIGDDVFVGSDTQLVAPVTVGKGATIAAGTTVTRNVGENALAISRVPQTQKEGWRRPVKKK
The IC50 is the concentration at which inhibition is half-maximal. Turning to `COc1cc(OC)c(S(=O)(=O)NCc2ccccc2N2CCC(CC(=O)O)CC2)cc1NC(=O)CCC(=O)O`, the IC50 was 0.4 µM.

Turning to `COc1cc(OC)c(S(=O)(=O)NCc2ccccc2N2CCC(C(=O)O)CC2)cc1NC(=O)CCC(=O)O`, the IC50 turned out to be 0.5 µM.

On to `COc1cc(OC)c(S(=O)(=O)Nc2ccccc2)cc1NC(C)=O`, for which the IC50 was found to be 20 µM.

Consider `COc1cc(OC)c(S(=O)(=O)N2c3ccccc3CC[C@H]2C)cc1NS(C)(=O)=O`, for which the 50% inhibitory concentration (IC50) is 100 µM.

As for `COc1cc(OC)c(S(=O)(=O)NCc2ccccc2N2CCC(COC(=O)CCC(=O)O)CC2)cc1NC(=O)CCC(=O)O`, the IC50 came out at 0.25 µM.

Regarding `COc1cc(OC)c(S(=O)(=O)N(C)C)cc1NC(C)=O`, the IC50 stood at 200 µM.

Take `COc1cc(OC)c(S(=O)(=O)Nc2ccccc2F)cc1NC(C)=O`: the IC50 was 5 µM.

Regarding `COc1cc(O)c(S(=O)(=O)N2c3ccccc3Oc3ccccc32)cc1NC(=O)[C@H]1[C@H](C)[C@@H]1C(=O)O`, the IC50 came out at 0.06 µM.

Take `COc1cc(OC)c(S(=O)(=O)N2c3ccccc3CC[C@H]2C)cc1NC(=O)CSc1ccncc1`: the IC50 was determined as 1 µM.

With `COc1cc(OC)c(S(=O)(=O)Nc2ccc(C)cc2)cc1NC(C)=O`, the IC50 was found to be 21 µM.

`COc1cc(OC)c(S(=O)(=O)N2c3ccccc3Oc3ccccc32)cc1NC(=O)[C@H]1[C@@H](C)[C@H]1C(=O)O`: the IC50 worked out at 0.03 µM.

In the case of `COc1cc(OC)c(S(=O)(=O)N2c3ccccc3CC[C@H]2C)cc1NC(=O)NCC(=O)O`, the IC50 turned out to be 0.5 µM.

As to `COc1cc(OC)c(S(=O)(=O)Nc2cccc(F)c2)cc1NC(C)=O`, the IC50 stood at 15 µM.

Turning to `COc1cc(OC)c(S(=O)(=O)NCc2ccccc2CC(=O)O)cc1NC(C)=O`, the IC50 amounted to 15 µM.

In the case of `COc1cc(OC)c(S(=O)(=O)N2CCC[C@H]2C)cc1NC(C)=O`, the IC50 came to 200 µM.

`COc1cc(O)c(S(=O)(=O)N2c3ccccc3CC[C@H]2C)cc1NC(=O)CCC(=O)O`: the IC50 turned out to be 0.05 µM.

Regarding `COc1cc(OC)c(S(=O)(=O)N2Cc3ccccc3Oc3ccccc32)cc1NC(=O)CCC(=O)O`, the IC50 came to 0.03 µM.

As to `COc1cc(OC)c(S(=O)(=O)N(c2ccccc2)c2ccc3ccccc3c2)cc1NC(=O)CCC(=O)O`, the IC50 is 0.04 µM.

Regarding `COc1cc(OC)c(S(=O)(=O)N2c3ccccc3Oc3ccccc32)cc1NC(=O)Cc1ccnc(F)c1`, the IC50 amounted to 0.09 µM.

Turning to `COc1cc(OC)c(S(=O)(=O)N2CCCCC2)cc1NC(C)=O`, the IC50 worked out at 80 µM.

For the compound `COc1cc(OC)c(S(=O)(=O)N(C)c2ccccc2)cc1NC(C)=O`, the IC50 worked out at 3 µM.
